Experimental data as given in PubChem BioAssay AID1963439 (Molecular Pharmacology Branch, DTP, NCI, 2024).

System: NCI-H196 complex spheroids with HUVEC/MSC, growth % T/C
Experiment: Anticancer human tumor NCI-H196 cell line growth inhibition [Asc];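 also: spheroids exposed to compound for 7 days before measurement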;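 as to viability, T/C: 100% = DMSO vehicle control wells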
Details: for IC50: curve of first compound; for viability, T/C: stronger effect = lower value
Summary of the method: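 Tumor cells were grown as complex spheroids with human endothelial cells (HUVEC) and human mesenchymal stem cells as stroma. Agents were tested alone and in combination, in half-log steps down from the clinical Cmax, or from 10 microM where Cmax was unknown.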

[1] = second compound 0.01 µM, first compound 0.00316 µM
[2] = second compound 0.01 µM, first compound 0.01 µM
[3] = second compound 0.01 µM, first compound 0.0316 µM
[4] = second compound 0.01 µM, first compound 0.1 µM
[5] = second compound 0.0316 µM, first compound 0.00316 µM
[6] = second compound 0.0316 µM, first compound 0.01 µM
[7] = second compound 0.0316 µM, first compound 0.0316 µM
[8] = second compound 0.0316 µM, first compound 0.1 µM
[9] = second compound 0.1 µM, first compound 0.00316 µM
[10] = second compound 0.1 µM, first compound 0.01 µM
[11] = second compound 0.1 µM, first compound 0.0316 µM
[12] = second compound 0.1 µM, first compound 0.1 µM
[13] = second compound 0.316 µM, first compound 0.00316 µM
[14] = second compound 0.316 µM, first compound 0.01 µM
[15] = second compound 0.316 µM, first compound 0.0316 µM
[16] = second compound 0.316 µM, first compound 0.1 µM
[17] = second compound 1 µM, first compound 0.00316 µM
[18] = second compound 1 µM, first compound 0.01 µM
[19] = second compound 1 µM, first compound 0.0316 µM
[20] = second compound 1 µM, first compound 0.1 µM

CCN1CCN(Cc2ccc(Nc3ncc(F)c(-c4cc(F)c5nc(C)n(C(C)C)c5c4)n3)nc2)CC1 + CNC(C)C(=O)NC1CN(S(=O)(=O)c2cccc(S(=O)(=O)N3CCC4CCC(C(=O)NC(c5ccccc5)c5ccccc5)N4C(=O)C(NC(=O)C(C)NC)C3)c2)CCC2CCC(C(=O)NC(c3ccccc3)c3ccccc3)N2C1=O
IC50 (second compound 0.01 µM): < 3.16 nM | IC50 (second compound 0.0316 µM): < 3.16 nM | IC50 (second compound 0.1 µM): < 3.16 nM | IC50 (second compound 0.316 µM): < 3.16 nM | IC50 (second compound 1 µM): < 3.16 nM | viability, T/C [1]: 5.3% | viability, T/C [2]: 6.9% | viability, T/C [3]: 9.46% | viability, T/C [4]: 7.15% | viability, T/C (second compound 0.01 µM, first compound 0.316 µM): 6.5% | viability, T/C (second compound 0.01 µM, first compound 1 µM): 5.95% | viability, T/C [5]: 4.57% | viability, T/C [6]: 4.1% | viability, T/C [7]: 3.84% | viability, T/C [8]: 4.62% | viability, T/C (second compound 0.0316 µM, first compound 0.316 µM): 6.92% | viability, T/C (second compound 0.0316 µM, first compound 1 µM): 5.07% | viability, T/C [9]: 3.7% | viability, T/C [10]: 4.39% | viability, T/C [11]: 3.41% | viability, T/C [12]: 3.01% | viability, T/C (second compound 0.1 µM, first compound 0.316 µM): 4.87% | viability, T/C (second compound 0.1 µM, first compound 1 µM): 3.86% | viability, T/C [13]: 2.69% | viability, T/C [14]: 4.01% | viability, T/C [15]: 3.79% | viability, T/C [16]: 4.21% | viability, T/C (second compound 0.316 µM, first compound 0.316 µM): 3.33% | viability, T/C (second compound 0.316 µM, first compound 1 µM): 3.67% | viability, T/C [17]: 2.84% | viability, T/C [18]: 3.75% | viability, T/C [19]: 3.08% | viability, T/C [20]: 3.26% | viability, T/C (second compound 1 µM, first compound 0.316 µM): 3.93% | viability, T/C (second compound 1 µM, first compound 1 µM): 3.85%

NC(=O)C(=Cn1cnc(-c2cc(C(F)(F)F)cc(C(F)(F)F)c2)n1)c1cncnc1 + CNC(C)C(=O)NC1CN(S(=O)(=O)c2cccc(S(=O)(=O)N3CCC4CCC(C(=O)NC(c5ccccc5)c5ccccc5)N4C(=O)C(NC(=O)C(C)NC)C3)c2)CCC2CCC(C(=O)NC(c3ccccc3)c3ccccc3)N2C1=O
IC50 (second compound 0.01 µM): < 0.949 nM | IC50 (second compound 0.0316 µM): < 0.949 nM | IC50 (second compound 0.1 µM): < 0.949 nM | IC50 (second compound 0.316 µM): < 0.949 nM | IC50 (second compound 1 µM): < 0.949 nM | viability, T/C (second compound 0.01 µM, first compound 0.000949 µM): 9.08% | viability, T/C (second compound 0.01 µM, first compound 0.003 µM): 6.89% | viability, T/C (second compound 0.01 µM, first compound 0.00949 µM): 9.23% | viability, T/C (second compound 0.01 µM, first compound 0.03 µM): 5% | viability, T/C (second compound 0.01 µM, first compound 0.0949 µM): 6.27% | viability, T/C (second compound 0.01 µM, first compound 0.3 µM): 3.41% | viability, T/C (second compound 0.0316 µM, first compound 0.000949 µM): 5.94% | viability, T/C (second compound 0.0316 µM, first compound 0.003 µM): 4.91% | viability, T/C (second compound 0.0316 µM, first compound 0.00949 µM): 5.48% | viability, T/C (second compound 0.0316 µM, first compound 0.03 µM): 5.12% | viability, T/C (second compound 0.0316 µM, first compound 0.0949 µM): 4.08% | viability, T/C (second compound 0.0316 µM, first compound 0.3 µM): 1.99% | viability, T/C (second compound 0.1 µM, first compound 0.000949 µM): 3.66% | viability, T/C (second compound 0.1 µM, first compound 0.003 µM): 3.77% | viability, T/C (second compound 0.1 µM, first compound 0.00949 µM): 3.89% | viability, T/C (second compound 0.1 µM, first compound 0.03 µM): 4.03% | viability, T/C (second compound 0.1 µM, first compound 0.0949 µM): 3.01% | viability, T/C (second compound 0.1 µM, first compound 0.3 µM): 1.56% | viability, T/C (second compound 0.316 µM, first compound 0.000949 µM): 3.76% | viability, T/C (second compound 0.316 µM, first compound 0.003 µM): 2.6% | viability, T/C (second compound 0.316 µM, first compound 0.00949 µM): 3.46% | viability, T/C (second compound 0.316 µM, first compound 0.03 µM): 3.21% | viability, T/C (second compound 0.316 µM, first compound 0.0949 µM): 1.59% | viability, T/C (second compound 0.316 µM, first compound 0.3 µM): 1.68% | viability, T/C (second compound 1 µM, first compound 0.000949 µM): 2.91% | viability, T/C (second compound 1 µM, first compound 0.003 µM): 3.81% | viability, T/C (second compound 1 µM, first compound 0.00949 µM): 3.53% | viability, T/C (second compound 1 µM, first compound 0.03 µM): 5.05% | viability, T/C (second compound 1 µM, first compound 0.0949 µM): 2.15% | viability, T/C (second compound 1 µM, first compound 0.3 µM): 1.55%

NC1CCC(NC2CC2c2ccccc2)CC1 (stereo not given) + CNC(C)C(=O)NC1CN(S(=O)(=O)c2cccc(S(=O)(=O)N3CCC4CCC(C(=O)NC(c5ccccc5)c5ccccc5)N4C(=O)C(NC(=O)C(C)NC)C3)c2)CCC2CCC(C(=O)NC(c3ccccc3)c3ccccc3)N2C1=O
IC50 (second compound 0.01 µM): < 0.316 nM | IC50 (second compound 0.0316 µM): < 0.316 nM | IC50 (second compound 0.1 µM): < 0.316 nM | IC50 (second compound 0.316 µM): < 0.316 nM | IC50 (second compound 1 µM): < 0.316 nM | viability, T/C (second compound 0.01 µM, first compound 0.000316 µM): 4.85% | viability, T/C (second compound 0.01 µM, first compound 0.001 µM): 7.42% | viability, T/C [1]: 7.08% | viability, T/C [2]: 4.94% | viability, T/C [3]: 4.47% | viability, T/C [4]: 5.83% | viability, T/C (second compound 0.0316 µM, first compound 0.000316 µM): 3.28% | viability, T/C (second compound 0.0316 µM, first compound 0.001 µM): 3.9% | viability, T/C [5]: 6.09% | viability, T/C [6]: 4.65% | viability, T/C [7]: 4.22% | viability, T/C [8]: 4.12% | viability, T/C (second compound 0.1 µM, first compound 0.000316 µM): 3.22% | viability, T/C (second compound 0.1 µM, first compound 0.001 µM): 3.76% | viability, T/C [9]: 3.15% | viability, T/C [10]: 3.8% | viability, T/C [11]: 2.91% | viability, T/C [12]: 5.63% | viability, T/C (second compound 0.316 µM, first compound 0.000316 µM): 3.14% | viability, T/C (second compound 0.316 µM, first compound 0.001 µM): 3.25% | viability, T/C [13]: 3.34% | viability, T/C [14]: 2.68% | viability, T/C [15]: 2.82% | viability, T/C [16]: 2.95% | viability, T/C (second compound 1 µM, first compound 0.000316 µM): 3.04% | viability, T/C (second compound 1 µM, first compound 0.001 µM): 4.43% | viability, T/C [17]: 3.1% | viability, T/C [18]: 3.47% | viability, T/C [19]: 3.24% | viability, T/C [20]: 2.28%
